Experimental data from patent publication US20240084258A1, “METHOD FOR PREPARING BROWN ADIPOCYTE” (KYOTO PREFECTURAL PUBLIC UNIVERSITY CORPORATION, priority 2015, published 2024).

Test system: human dermal fibroblasts (HDFs)
Experiment: UCP1 mRNA response of induced cells to Isoproterenol or FSK stimulation (Example 3)
Format: cell-based
Conditions: cells cultured 14 days in induction medium with D4476 in addition to T3 and Rosiglitazone; FIG. 3
Description: 10 μM Isoproterenol or FSK was added to these cells as described in the Figure. As a control, a group free of the addition was also prepared. After 5 hr, the culture medium was removed from each well by suction, the cells were washed with PBS(−) and total RNA was extracted from the cells with ISOGEN II. qRT-PCR was performed in the same manner as in Example 2. The mRNA level of UCP1 gene was quantified as a ratio to […] gene mRNA and calculated with the value of fibroblast cultured in the normal medium as 1.

NC(=O)c1ccc(-c2nc(-c3ccc4c(c3)OCCO4)c(-c3ccccn3)[nH]2)cc1 [D4476, 4-[4-(2,3-dihydro-1,4-benzodioxin-6-yl)-5-(2-pyridlnyl-)1H-imidazol-2-yl]-benzamide]
responsiveness of induced cells to Isoproterenol or FSK stimuli: brown adipocyte-like responsiveness
